Test results from US10450549B2, “Aryloxyphenoxypropionate tolerance in turfrgass species and use of AAD1 as a selectable marker” (Dow AgroSciences, LLC, priority 2004, dated 2019).
Where “and” joins values, the source holds several entries; their conditions need not be identical. Identical values can stand only once.

How the values were obtained:
[1] = tested on: T4 Arabidopsis homozygous for AAD1 (v3) (line AAD1.01.315.076); experiment: Foliar-applied auxinic herbicides on homozygous T4 AAD1 (v3) Arabidopsis, % injury 14 DAT; assay type: in vivo, Arabidopsis thaliana; conditions: for Ave % Injury 14DAT: AAD1.01.315.076.T4 homozygous AAD1 plants
Procedure: (§1) The ability of AAD1 (v3) to provide resistance to other aryloxyphenoxyalkanoate auxin herbicides in transgenic Arabidopsis was determined by foliar application of various substrates described in Example 6.8. T4 generation Arabidopsis seed, homozygous for AAD1 (v3) (line AAD1.01.315.076) was stratified, and sown into selection trays much like that of Arabidopsis (Example 6.4). A transformed-control line containing PAT and the insect resistance gene Cry1F was planted in a similar manner. Seedlings were transferred to individual 3-inch pots in the greenhouse. All plants were sprayed with the use of a track sprayer set at 187 L/ha. […] All applications were formulated in 200 mM Hepes buffer (pH 7.5). Each treatment was replicated 3-4 times. Plants were evaluated at 3 and 14 days after treatment and are averaged over two experiments.

[2] = tested on: Arabidopsis thaliana var. Columbia; experiment: Arabidopsis plate test bioassay for herbicide degradation; assay type: in vivo; conditions: Arabidopsis thaliana, 168 h, read-out: GR50, Chemical alone
AAD1 (v1) = target: T1, AAD1 (v1) (Sphingobium herbicidovorans, UniProt Q8KSC8); experiment: Colorimetric phenol detection assay of AAD1 (v1) activity (purified enzyme or E. coli extract); assay type: biochemical; conditions: for A510, AAD1 / A510, AAD1 (10x): substrate 1 mM; for A510, AAD1: 1 μg purified AAD1 (v1) per 0.16 ml assay; for A510, AAD1 (10x): 10 μg purified AAD1 (v1) per 0.16 ml assay
T1 construct: made in house; host or cells: E. coli BL-21 Star (DE3), plasmid pDAB3203

[3] = tested on: transformed-control line containing PAT and Cry1F; experiment: Foliar-applied auxinic herbicides on control (PAT/Cry1F, wildtype) Arabidopsis, % injury 14 DAT; assay type: in vivo, Arabidopsis thaliana; conditions: PatCry1f - Control
Procedure: as §1

T1 sequence (Q8KSC8 whole entry): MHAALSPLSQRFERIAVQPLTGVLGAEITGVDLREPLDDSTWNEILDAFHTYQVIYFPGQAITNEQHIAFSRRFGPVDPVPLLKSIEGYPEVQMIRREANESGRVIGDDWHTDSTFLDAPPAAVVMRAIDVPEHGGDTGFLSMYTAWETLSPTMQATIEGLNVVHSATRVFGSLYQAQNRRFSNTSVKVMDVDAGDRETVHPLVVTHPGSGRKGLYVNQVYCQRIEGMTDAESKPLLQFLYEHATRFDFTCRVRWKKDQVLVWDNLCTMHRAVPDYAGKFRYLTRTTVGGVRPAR

What does the source list for `Oc1ccc(Cl)cc1Cl` [DCP, 2,4-dichlorophenol]?
effect of the metabolite on wildtype or transgenic Arabidopsis ([1]; foliar, 50-3200 g ae/ha): no effect; IC50 [2]: > 1000 nM

With `O=C(O)CCCOc1ccc(Cl)cc1Cl` [compound 178577] as the compound, how does the “A510, AAD1” value (AAD1 (v1); Table 3, 15 min) read?
Its value is 0.003.

What about the “A510, AAD1 (10x)” value (AAD1 (v1); Table 3, 15 min) of the same compound?
Its value is 0.021.

Which results are given for `O=C(O)COc1ccc(F)cc1Cl` [compound 124988]?
A510, AAD1 (AAD1 (v1); Table 3, 15 min): 0.007; A510, AAD1 (10x) (AAD1 (v1); Table 3, 15 min): 0.058

Which results are given for `Oc1ccc(Cl)cc1Cl` [2,4-DCP]?
Ave % Injury 14DAT ([1]; 50 g ae/ha foliar): 0%; Ave % Injury 14DAT ([1]; 200 g ae/ha foliar): 0%; Ave % Injury 14DAT ([1]; 800 g ae/ha foliar): 0%; Ave % Injury 14DAT ([1]; 3200 g ae/ha foliar): 0%; Ave % Injury 14DAT ([3]; 50 g ae/ha foliar): 0%; Ave % Injury 14DAT ([3]; 200 g ae/ha foliar): 0%; Ave % Injury 14DAT ([3]; 800 g ae/ha foliar): 0%; Ave % Injury 14DAT ([3]; 3200 g ae/ha foliar): 0%

Which results are given for `CC(Oc1ccc(Cl)c(N)c1Cl)C(=O)O` (racemic) [(R,S)-3-aminodichlorpop]?
A510, AAD1 (AAD1 (v1); Table 3, 15 min): 0.228; A510, AAD1 (10x) (AAD1 (v1); Table 3, 15 min): 2.676; fold better than 2,4-D as a substrate (AAD1 (v1); purified AAD1 (v1), Table 3 data, listed as 3-aminodichlorprop): ~7 fold and > 7 fold

What does the source list for `CC(Oc1ccc(Oc2ncc(Cl)cc2F)cc1)C(=O)O` (racemic) [(R,S)- clodinofop]?
A510, AAD1 (AAD1 (v1); Table 4): 0.295; A510, AAD1 (10x) (AAD1 (v1); Table 4): 1.98

For `CC(Oc1cc(F)c(Cl)c(N)c1Cl)C(=O)O` (racemic) [(R,S)-3-amino, 5-F-dichlorprop], which “rate of product formation relative to 2,4-D” value (AAD1 (v1); 1 mM, 27 μg crude recombinant AAD1 (v1) per assay) is on record?
Its value is 125%.

What about the A510 (AAD1 (v1); Table 8, 1 mM, 27 μg crude recombinant AAD1 (v1) extract from E. coli) of the same compound?
The A510 was 0.221.

What about the “% 2,4-D” value (AAD1 (v1); Table 8, relative to 2,4-D, crude AAD1 (v1) extract) of the same compound?
The value was 125%.

With `CCC(Oc1ccc(Cl)cc1Cl)C(N)=O` (stereo not shown) [compound 192132] as the compound, how does the “A510, AAD1” value (AAD1 (v1); Table 3, 15 min) read?
The value was 0.064.

And the “A510, AAD1 (10x)” value (AAD1 (v1); Table 3, 15 min)?
Its value is 0.204.

Which results are given for `CC(Oc1ccc(Oc2ncc(C(F)(F)F)cc2Cl)cc1F)C(=O)O` (stereo not shown) [compound 25646]?
A510, AAD1 (AAD1 (v1); Table 4): 0.144; A510, AAD1 (10x) (AAD1 (v1); Table 4): 1.69

For `CC(Oc1ccc(Oc2ccc(C(F)(F)F)cn2)cc1)C(=O)O` (racemic) [(R,S)- fluazifop], which “A510, AAD1” value (AAD1 (v1); Table 4) is on record?
The value was 0.427.

And the “A510, AAD1 (10x)” value (AAD1 (v1); Table 4)?
Its value is 2.17.
